Tests used:
5HT2C receptors = target: T1, 5HT2C receptors (Rattus norvegicus, UniProt P08909); experiment: Penile erection test; format: in vivo, rats
T1 construct: from tissue; host or cells: living rats (in vivo)
T1 sequence (P08909 33-460): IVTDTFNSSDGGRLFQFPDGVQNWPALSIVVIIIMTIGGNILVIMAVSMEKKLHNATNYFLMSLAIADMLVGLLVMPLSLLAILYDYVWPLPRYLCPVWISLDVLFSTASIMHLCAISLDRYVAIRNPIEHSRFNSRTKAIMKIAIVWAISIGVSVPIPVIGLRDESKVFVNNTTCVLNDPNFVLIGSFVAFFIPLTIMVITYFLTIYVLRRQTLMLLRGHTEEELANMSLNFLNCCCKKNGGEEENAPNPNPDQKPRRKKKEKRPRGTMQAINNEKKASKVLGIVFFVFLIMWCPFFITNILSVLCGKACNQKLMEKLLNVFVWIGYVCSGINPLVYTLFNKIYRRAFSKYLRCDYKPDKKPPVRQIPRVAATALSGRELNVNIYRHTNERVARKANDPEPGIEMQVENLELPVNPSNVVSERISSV
Description: This test, carried out according to the protocol of Berendsen et al [“Involvement of 5-HT1C receptors in drug-induced penile erections in rats”—Psychopharmacology 101: 57-61(1990)] enables the potential in vivo activity at 5HT2C receptors to be assessed.

DRL-72 test = format: in vivo, rats
Description: This test, carried out according to the protocol of Andrews et al [“Effects of imipramine and mirtazapine on operant performance in rats”—Drug Development Research 32: 58-66 (1994)], gives an indication of potential antidepressant-like activity.

5-HT2C receptors = target: T2, 5-HT2C receptors (Homo sapiens, UniProt P28335); experiment: Binding test, displacement of [3H]-mesulergine, cloned human receptors expressed in 3T3 cells
T2 construct: expressed in transfected cells; host or cells: 3T3 cells
T2 sequence (P28335 33-458): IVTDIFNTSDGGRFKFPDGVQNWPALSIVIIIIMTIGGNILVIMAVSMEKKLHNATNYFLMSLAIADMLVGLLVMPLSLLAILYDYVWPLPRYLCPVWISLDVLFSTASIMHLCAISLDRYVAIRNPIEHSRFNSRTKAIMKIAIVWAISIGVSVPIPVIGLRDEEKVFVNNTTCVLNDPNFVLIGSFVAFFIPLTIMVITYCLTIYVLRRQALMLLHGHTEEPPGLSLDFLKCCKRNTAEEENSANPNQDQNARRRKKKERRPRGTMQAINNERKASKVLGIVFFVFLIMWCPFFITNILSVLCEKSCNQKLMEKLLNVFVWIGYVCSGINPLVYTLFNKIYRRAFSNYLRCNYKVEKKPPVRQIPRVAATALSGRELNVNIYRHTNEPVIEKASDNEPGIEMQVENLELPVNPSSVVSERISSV
Experimental: The tests are carried out using cloned human receptors expressed in 3T3 cells according to the protocols described in Stam et at “Genomic organization, coding sequence and functional expression of human 5-HT2 and 5-HT1A receptor genes”—European Journal of Pharmacology—Molecular Pharmacology Section 227: 153-162 (1993) and Stam et al “Genomic organisation and functional expression of the gene encoding the human serotonin 5-HT2C receptor”—European Journal of Pharmacology—Molecular Pharmacology Section 269: 339-348 (1994).

SMILES	melting point [°C]	other results
COc1ccc2c(c1O[C@@H]1CCNC1)CCC2.Cl	174	–
Cl.c1cc2c(c(OC3CNC3)c1)CCC2	65	–
Cc1ccc2ccccc2c1OC1CNC1.Cl	171	–
Cl.c1ccc2c(OC3CNC3)cccc2c1	292	–
COc1ccc(OC2CNC2)c2ccccc12.Cl	198	–
Cl.c1cc2c(c(OC3CNC3)c1)CCCC2	187	–
COc1ccc2c(c1OC1CNC1)CCCC2.Cl	164	–
Cl.c1ccc2cc(OC3CNC3)ccc2c1	168	–
Cl.c1cc2c(c(OC3CNC3)c1)NCCC2	> 250	–
Cl.Clc1ccc2c(c1OC1CNC1)CCC2	188	–
Cl.Clc1cc(Cl)c2ccccc2c1OC1CNC1	187	–
Cc1ccc(OC2CNC2)c2ccccc12.Cl	180	–
CC1CCc2c(OC3CNC3)cc(F)cc21.Cl (centres unmarked)	170	–
Cl.c1cc(OC2CNC2)c2ccsc2c1	203	–
Cl.Cl.c1cc(OC2CNC2)c2ccncc2c1	198	–
Cl.c1ccc2c(SC3CNC3)cccc2c1	159	–
COCc1ccc2ccccc2c1OC1CNC1.Cl	127	–
COc1ccc2c(c1OC1CCNC1)CCC2.Cl (racemic) [Compound 10b, (rac)-3-[(2,3-Dihydro-5-methoxy-1H-inden-4-yl)oxy] pyrrolidine hydrochloride]	154	Erection of the penis (MED) (5HT2C receptors): 1 mg/kg; Increase in pellets earned in DRL-72 (MED) (DRL-72 test): 10 mg/kg
Cl.c1ccc2c(OC3CCNC3)cccc2c1 (racemic) [Compound 10c, (rac)-3-[(1-Naphtalenyl)oxy]pyrrolidine hydrochloride]	–	selective effect on 5-HT2C receptors in the central nervous system (5-HT2C receptors): selective effect on 5-HT2C receptors
COc1ccc2c(c1OC1CNC1)CCC2.Cl [Compound 5d, 3-[(2,3-Dihydro-5-methoxy-1H-inden-4-yl)oxy]-azetidine hydrochloride]	166	Erection of the penis (MED) (5HT2C receptors): 1 mg/kg; Increase in pellets earned in DRL-72 (MED) (DRL-72 test): 10 mg/kg
COc1ccc2c(c1O[C@H]1CCNC1)CCC2.Cl [Compound 9a, (S)-(+)-3-[(2,3-Dihydro-5-methoxy-1H-inden-4-yl)oxy]-pyrrolidine Hydrochloride]	176	Erection of the penis (MED) (5HT2C receptors): 0.46 mg/kg; Increase in pellets earned in DRL-72 (MED) (DRL-72 test): 3 mg/kg
Cl.c1cc2c(c(OC3CCNC3)c1)CCCC2 (centres unmarked) [Compound 9b, 3-[(5,6,7,8-Tetrahydro-1-naphthalenyl)oxy]-pyrrolidine hydrochloride]	207	selective effect on 5-HT2C receptors in the central nervous system (5-HT2C receptors): selective effect on 5-HT2C receptors

From patent publication US6403573B1, “Compounds of azetidine and pyrrolidin” (Akzo Nobel N.V., priority 2000, dated 2002)
